{
  "source": "paper PMC4447944",
  "about": "(The Journal of Biological Chemistry, 2015)",
  "key": {"SMYD2": {"target": "SMYD2 (Homo sapiens, UniProt Q9NRG4)", "sequence (Q9NRG4 whole entry)": "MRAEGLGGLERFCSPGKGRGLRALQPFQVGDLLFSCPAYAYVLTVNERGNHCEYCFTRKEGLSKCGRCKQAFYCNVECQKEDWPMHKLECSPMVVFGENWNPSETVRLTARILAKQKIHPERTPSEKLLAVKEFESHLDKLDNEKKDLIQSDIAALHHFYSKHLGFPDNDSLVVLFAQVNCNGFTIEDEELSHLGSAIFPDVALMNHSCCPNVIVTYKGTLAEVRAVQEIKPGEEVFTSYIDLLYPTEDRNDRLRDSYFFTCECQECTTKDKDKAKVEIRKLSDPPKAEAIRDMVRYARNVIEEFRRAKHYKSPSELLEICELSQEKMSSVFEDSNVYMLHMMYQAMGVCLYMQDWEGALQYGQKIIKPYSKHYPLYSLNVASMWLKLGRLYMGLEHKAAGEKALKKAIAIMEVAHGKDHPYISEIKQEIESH", "assay": "Thermal denaturation fluorometry (differential scanning fluorometry)", "type": "binding", "conditions": "100 μM LLY-507", "procedure": "SMYD2 protein unfolding was monitored on a 384-well Roche Lightcycler480 II^TM RT-PCR machine using SYPRO® Orange as a reporter dye (Invitrogen, S6651). Excitation and emission filters were set at 465 and 580 nm, respectively; the temperature was continuously ramped from 25 to 95 °C at a rate of 0.11°C/s. The reaction mixture (6 μl/well) contained 3.9 μM SMYD2 protein and 100 μM compound in 20 mM Tris, pH 8.0, 150 mM NaCl, 10% glycerol, 2 mM tris(2-carboxyethyl)phosphine (TCEP), and 1% DMSO buffer. Triplicates were run along with protein without compound as a negative control."}, "hASK2": {"target": "T1, hASK2 (Homo sapiens, UniProt O95382)", "T1 construct": "purchased DiscoverX", "assay": "KINOMEscan", "type": "binding"}, "hBTK": {"target": "T2, hBTK (Homo sapiens, UniProt Q06187)", "T2 construct": "purchased DiscoverX", "assay": "KINOMEscan", "type": "binding"}, "hCDKL2": {"target": "T3, hCDKL2 (Homo sapiens, UniProt Q92772)", "T3 construct": "purchased DiscoverX", "assay": "KINOMEscan", "type": "binding"}, "hCDKL5": {"target": "T4, hCDKL5 (Homo sapiens, UniProt O76039)", "T4 construct": "purchased DiscoverX", "assay": "KINOMEscan", "type": "binding"}, "hCSNK1G3": {"target": "T5, hCSNK1G3 (Homo sapiens, UniProt Q9Y6M4)", "T5 construct": "purchased DiscoverX (KINOMEscan platform)", "assay": "KINOMEscan", "type": "binding"}, "hEGFR": {"target": "T6, hEGFR (Homo sapiens, UniProt P00533)", "T6 construct": "purchased DiscoverX", "assay": "KINOMEscan", "type": "binding"}, "hEPHA4": {"target": "T7, hEPHA4 (Homo sapiens, UniProt P54764)", "T7 construct": "purchased DiscoverX", "assay": "KINOMEscan", "type": "binding"}, "hEPHB6": {"target": "T8, hEPHB6 (Homo sapiens, UniProt O15197)", "T8 construct": "purchased DiscoverX", "assay": "KINOMEscan", "type": "binding"}, "hFLT4": {"target": "T9, hFLT4 (Homo sapiens, UniProt P35916)", "T9 construct": "purchased DiscoverX", "assay": "KINOMEscan", "type": "binding"}, "hFRK": {"target": "T10, hFRK (Homo sapiens, UniProt P42685)", "T10 construct": "purchased DiscoverX", "assay": "KINOMEscan", "type": "binding"}, "hGRK7": {"target": "T11, hGRK7 (Homo sapiens, UniProt Q8WTQ7)", "T11 construct": "purchased DiscoverX", "assay": "KINOMEscan", "type": "binding"}, "hHPK1": {"target": "T12, hHPK1 (Homo sapiens, UniProt Q92918)", "T12 construct": "purchased DiscoverX (KINOMEscan panel)", "T12 sequence (Q92918 whole entry)": "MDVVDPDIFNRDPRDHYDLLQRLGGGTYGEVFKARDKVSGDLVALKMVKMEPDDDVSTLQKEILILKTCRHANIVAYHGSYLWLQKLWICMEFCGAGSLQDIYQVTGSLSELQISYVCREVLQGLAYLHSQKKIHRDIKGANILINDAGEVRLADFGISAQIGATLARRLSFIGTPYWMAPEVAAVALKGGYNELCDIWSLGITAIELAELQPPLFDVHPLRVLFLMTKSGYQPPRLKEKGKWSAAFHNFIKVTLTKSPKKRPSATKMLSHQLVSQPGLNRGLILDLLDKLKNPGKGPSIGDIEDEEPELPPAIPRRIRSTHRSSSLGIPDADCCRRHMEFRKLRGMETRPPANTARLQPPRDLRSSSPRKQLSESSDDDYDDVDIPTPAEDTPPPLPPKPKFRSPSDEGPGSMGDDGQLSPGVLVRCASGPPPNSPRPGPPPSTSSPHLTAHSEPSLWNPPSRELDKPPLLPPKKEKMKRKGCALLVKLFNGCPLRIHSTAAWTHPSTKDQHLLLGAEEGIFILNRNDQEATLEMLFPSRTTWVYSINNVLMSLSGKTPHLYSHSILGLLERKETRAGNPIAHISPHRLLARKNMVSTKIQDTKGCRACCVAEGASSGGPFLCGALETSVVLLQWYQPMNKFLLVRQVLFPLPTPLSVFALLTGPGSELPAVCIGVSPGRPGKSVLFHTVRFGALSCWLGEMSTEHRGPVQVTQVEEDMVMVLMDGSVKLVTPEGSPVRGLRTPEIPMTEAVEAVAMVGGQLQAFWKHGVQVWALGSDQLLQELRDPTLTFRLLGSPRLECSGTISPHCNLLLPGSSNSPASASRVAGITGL", "assay": "KINOMEscan", "type": "binding"}, "hKIT-autoinhibited": {"target": "T13, hKIT-autoinhibited (Homo sapiens, UniProt P10721)", "T13 construct": "purchased DiscoverX (KINOMEscan platform)", "T13 sequence (P10721 544-976 limits assumed)": "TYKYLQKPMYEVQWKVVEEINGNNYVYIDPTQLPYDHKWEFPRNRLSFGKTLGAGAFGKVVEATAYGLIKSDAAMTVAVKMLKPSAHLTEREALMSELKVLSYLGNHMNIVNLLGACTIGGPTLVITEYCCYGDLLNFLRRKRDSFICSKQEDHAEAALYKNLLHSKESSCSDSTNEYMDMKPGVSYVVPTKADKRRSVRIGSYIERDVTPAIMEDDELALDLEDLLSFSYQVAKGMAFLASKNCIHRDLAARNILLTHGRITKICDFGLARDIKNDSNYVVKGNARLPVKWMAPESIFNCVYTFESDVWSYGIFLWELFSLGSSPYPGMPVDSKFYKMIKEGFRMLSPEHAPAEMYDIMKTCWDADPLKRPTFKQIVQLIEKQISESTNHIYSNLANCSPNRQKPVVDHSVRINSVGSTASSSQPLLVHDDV", "assay": "KINOMEscan", "type": "binding"}, "hLCK": {"target": "T14, hLCK (Homo sapiens, UniProt P06239)", "T14 construct": "purchased DiscoverX (KINOMEscan platform)", "assay": "KINOMEscan", "type": "binding"}, "hMAP3K15": {"target": "T15, hMAP3K15 (Homo sapiens, UniProt Q6ZN16)", "T15 construct": "purchased DiscoverX (KINOMEscan platform)", "assay": "KINOMEscan", "type": "binding"}, "hMARK2": {"target": "T16, hMARK2 (Homo sapiens, UniProt Q7KZI7)", "T16 construct": "purchased DiscoverX", "T16 sequence (Q7KZI7 whole entry)": "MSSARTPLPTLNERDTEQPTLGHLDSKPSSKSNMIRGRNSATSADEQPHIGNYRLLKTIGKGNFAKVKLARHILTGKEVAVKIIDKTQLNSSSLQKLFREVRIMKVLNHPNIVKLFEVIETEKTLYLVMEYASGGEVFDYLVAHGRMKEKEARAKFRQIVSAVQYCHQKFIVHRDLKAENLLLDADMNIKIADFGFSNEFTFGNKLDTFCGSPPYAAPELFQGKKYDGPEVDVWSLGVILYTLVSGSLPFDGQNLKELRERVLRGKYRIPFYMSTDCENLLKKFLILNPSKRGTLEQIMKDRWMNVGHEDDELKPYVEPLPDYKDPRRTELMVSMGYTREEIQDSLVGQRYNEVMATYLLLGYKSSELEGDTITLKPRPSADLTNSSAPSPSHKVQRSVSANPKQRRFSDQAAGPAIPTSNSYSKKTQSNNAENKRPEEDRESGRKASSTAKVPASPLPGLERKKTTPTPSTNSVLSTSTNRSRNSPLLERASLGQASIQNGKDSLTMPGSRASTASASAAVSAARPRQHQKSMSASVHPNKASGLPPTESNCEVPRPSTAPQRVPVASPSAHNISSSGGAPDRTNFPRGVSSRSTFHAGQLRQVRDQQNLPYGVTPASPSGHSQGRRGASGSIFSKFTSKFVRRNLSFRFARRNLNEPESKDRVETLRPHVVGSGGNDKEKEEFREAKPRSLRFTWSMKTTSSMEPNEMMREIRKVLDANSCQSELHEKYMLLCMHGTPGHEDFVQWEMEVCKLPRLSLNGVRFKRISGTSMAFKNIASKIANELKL", "assay": "KINOMEscan", "type": "binding"}, "hRIOK1": {"target": "T17, hRIOK1 (Homo sapiens, UniProt Q9BRS2)", "T17 construct": "purchased DiscoverX (KINOMEscan platform)", "assay": "KINOMEscan", "type": "binding"}, "hROS1": {"target": "T18, hROS1 (Homo sapiens, UniProt P08922)", "T18 construct": "purchased DiscoverX (KINOMEscan platform)", "T18 sequence (P08922 28-2347)": "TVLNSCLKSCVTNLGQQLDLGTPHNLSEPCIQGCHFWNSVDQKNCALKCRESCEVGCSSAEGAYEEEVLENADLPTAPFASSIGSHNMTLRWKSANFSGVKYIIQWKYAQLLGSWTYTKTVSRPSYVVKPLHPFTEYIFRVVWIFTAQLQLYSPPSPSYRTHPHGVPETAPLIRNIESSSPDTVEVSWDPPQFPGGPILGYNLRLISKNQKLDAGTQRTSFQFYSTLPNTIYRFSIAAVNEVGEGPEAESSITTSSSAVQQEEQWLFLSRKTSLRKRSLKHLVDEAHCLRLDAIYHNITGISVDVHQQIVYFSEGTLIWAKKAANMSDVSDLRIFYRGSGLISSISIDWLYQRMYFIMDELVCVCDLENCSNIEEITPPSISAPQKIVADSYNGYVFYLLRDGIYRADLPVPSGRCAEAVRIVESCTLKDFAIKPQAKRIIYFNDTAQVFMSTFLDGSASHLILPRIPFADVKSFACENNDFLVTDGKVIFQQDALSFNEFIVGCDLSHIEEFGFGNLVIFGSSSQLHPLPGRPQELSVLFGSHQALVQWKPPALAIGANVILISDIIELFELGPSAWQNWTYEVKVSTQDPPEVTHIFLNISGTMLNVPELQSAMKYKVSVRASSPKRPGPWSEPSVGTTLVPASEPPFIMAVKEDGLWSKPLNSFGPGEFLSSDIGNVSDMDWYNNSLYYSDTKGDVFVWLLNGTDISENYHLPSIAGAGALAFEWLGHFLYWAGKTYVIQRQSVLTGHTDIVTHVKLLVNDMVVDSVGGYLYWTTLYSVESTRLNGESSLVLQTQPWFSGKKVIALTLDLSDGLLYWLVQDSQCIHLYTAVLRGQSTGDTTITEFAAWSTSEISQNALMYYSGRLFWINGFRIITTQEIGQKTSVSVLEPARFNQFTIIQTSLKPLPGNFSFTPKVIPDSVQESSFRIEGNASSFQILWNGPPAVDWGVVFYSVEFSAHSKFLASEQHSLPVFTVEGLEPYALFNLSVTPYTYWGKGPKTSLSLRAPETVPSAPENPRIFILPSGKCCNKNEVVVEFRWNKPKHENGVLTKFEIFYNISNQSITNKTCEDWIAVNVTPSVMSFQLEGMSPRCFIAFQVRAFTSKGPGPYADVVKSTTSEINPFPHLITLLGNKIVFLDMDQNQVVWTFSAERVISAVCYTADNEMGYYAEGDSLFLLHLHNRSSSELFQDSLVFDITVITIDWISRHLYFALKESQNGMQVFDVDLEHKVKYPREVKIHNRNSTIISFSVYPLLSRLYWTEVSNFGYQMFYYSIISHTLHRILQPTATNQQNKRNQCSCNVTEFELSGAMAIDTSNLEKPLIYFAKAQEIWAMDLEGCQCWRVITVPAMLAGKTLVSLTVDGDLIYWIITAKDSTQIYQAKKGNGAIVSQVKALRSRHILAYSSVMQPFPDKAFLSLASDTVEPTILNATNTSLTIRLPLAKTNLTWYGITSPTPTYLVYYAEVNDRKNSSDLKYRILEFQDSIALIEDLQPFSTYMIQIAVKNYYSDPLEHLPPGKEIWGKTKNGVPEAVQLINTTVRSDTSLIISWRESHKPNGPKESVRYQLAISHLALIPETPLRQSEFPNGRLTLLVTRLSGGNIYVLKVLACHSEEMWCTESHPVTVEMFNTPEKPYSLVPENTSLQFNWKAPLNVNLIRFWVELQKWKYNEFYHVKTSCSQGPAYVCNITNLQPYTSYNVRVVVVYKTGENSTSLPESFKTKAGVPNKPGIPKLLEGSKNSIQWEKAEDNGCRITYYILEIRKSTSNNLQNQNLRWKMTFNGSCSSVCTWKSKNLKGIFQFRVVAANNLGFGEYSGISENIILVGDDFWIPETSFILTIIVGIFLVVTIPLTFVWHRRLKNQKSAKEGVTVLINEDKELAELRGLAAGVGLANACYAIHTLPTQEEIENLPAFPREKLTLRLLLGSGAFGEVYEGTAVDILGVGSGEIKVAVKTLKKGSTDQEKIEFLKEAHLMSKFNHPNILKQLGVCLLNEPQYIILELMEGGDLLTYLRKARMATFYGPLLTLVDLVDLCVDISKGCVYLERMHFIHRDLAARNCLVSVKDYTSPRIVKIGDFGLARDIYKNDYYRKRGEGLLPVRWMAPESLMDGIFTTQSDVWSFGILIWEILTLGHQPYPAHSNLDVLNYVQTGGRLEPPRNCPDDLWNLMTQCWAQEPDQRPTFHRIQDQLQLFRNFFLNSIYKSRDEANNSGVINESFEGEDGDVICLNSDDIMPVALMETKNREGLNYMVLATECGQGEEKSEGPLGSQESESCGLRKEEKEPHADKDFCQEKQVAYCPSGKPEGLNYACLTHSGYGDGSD", "assay": "KINOMEscan", "type": "binding"}, "[1]": {"target": "T19, hRPS6KA5(Kin.Dom.2-C-term) (Homo sapiens, UniProt O75582)", "T19 construct": "hRPS6KA5(Kin.Dom.2-C-term); purchased DiscoverX (KINOMEscan platform)", "T19 sequence (O75582 426-687 limits assumed)": "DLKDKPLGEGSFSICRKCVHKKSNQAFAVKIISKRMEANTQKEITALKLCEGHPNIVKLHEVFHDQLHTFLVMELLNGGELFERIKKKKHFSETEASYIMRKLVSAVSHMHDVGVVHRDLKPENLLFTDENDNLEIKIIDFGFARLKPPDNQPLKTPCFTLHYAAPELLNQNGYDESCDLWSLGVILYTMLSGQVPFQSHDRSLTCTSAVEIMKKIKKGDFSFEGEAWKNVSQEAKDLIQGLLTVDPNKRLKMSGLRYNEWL", "assay": "KINOMEscan", "type": "binding"}, "hSRC": {"target": "T20, hSRC (Homo sapiens, UniProt P12931)", "T20 construct": "purchased DiscoverX (KINOMEscan platform)", "assay": "KINOMEscan", "type": "binding"}, "hTNK2": {"target": "T21, hTNK2 (Homo sapiens, UniProt Q07912)", "T21 construct": "purchased DiscoverX", "assay": "KINOMEscan", "type": "binding"}, "hADRα2A": {"target": "T22, hADRα2A (Homo sapiens, UniProt P08913)", "T22 sequence (P08913 1-465)": "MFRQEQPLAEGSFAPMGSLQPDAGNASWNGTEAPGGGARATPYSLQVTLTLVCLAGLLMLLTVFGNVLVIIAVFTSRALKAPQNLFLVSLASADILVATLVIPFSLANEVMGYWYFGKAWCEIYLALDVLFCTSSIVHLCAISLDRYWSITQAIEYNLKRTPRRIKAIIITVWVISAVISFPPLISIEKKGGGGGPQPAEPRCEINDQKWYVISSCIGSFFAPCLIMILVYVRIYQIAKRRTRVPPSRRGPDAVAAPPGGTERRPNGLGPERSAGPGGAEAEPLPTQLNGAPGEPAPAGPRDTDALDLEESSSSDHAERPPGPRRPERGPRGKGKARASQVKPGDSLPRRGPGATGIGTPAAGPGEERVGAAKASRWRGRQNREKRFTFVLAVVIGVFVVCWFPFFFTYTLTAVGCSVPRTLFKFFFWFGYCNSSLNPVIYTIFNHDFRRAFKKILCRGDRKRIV", "assay": "β-arrestin Antagonist (Eurofins-CEREP)", "conditions": "read-out: % Effect, Inhibition"}, "hM2": {"target": "T23, hM2 (Homo sapiens, UniProt P08172)", "T23 sequence (P08172 1-466)": "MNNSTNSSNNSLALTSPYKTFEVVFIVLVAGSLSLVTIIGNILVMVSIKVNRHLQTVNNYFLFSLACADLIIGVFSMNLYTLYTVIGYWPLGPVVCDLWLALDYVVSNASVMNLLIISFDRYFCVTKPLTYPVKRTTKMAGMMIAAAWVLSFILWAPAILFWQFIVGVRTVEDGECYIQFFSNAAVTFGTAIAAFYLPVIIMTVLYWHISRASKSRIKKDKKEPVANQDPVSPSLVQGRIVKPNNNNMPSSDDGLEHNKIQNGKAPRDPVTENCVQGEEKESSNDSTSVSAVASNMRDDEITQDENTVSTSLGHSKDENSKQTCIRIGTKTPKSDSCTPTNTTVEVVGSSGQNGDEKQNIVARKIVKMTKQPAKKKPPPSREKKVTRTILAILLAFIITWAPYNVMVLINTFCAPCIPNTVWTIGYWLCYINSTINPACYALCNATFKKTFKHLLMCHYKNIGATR", "assay": "β-arrestin Potentiation (Eurofins-CEREP)", "conditions": "@ 10 μM"}, "h5HT2B": {"target": "h5HT2B (Homo sapiens, UniProt P41595)", "assay": "Calcium Mobilization Agonist (Eurofins-CEREP)", "conditions": "@ 13.3 μM"}},
  "data": [
    {"smiles": "Cc1cn(CCN2CCN(c3ccccc3-c3cc(C#N)cc(C(=O)NCCCN4CCCC4)c3)CC2)c2ccccc12", "note": "[LLY-507, 3-cyano-5-{2-[4-[2-(3-methylindol-1-yl)ethyl]piperazin-1-yl]-phenyl}-N-[(3-pyrrolidin-1-yl)propyl]benzamide]", "values": [
      {"measurement": "increase in thermal stability of SMYD2", "setting": "SMYD2", "value": 5, "unit": "°C"},
      {"measurement": "Tm of SMYD2 in presence of compound", "setting": "SMYD2; SMYD2 alone Tm = 49 °C", "value": 54, "unit": "°C"},
      {"measurement": "IC50", "setting": "hASK2", "value": "> 20", "unit": "µM"},
      {"measurement": "IC50", "setting": "hBTK", "value": "> 20", "unit": "µM"},
      {"measurement": "IC50", "setting": "hCDKL2", "value": "> 20", "unit": "µM"},
      {"measurement": "IC50", "setting": "hCDKL5", "value": "> 20", "unit": "µM"},
      {"measurement": "IC50", "setting": "hCSNK1G3", "value": "> 20", "unit": "µM"},
      {"measurement": "IC50", "setting": "hEGFR", "value": "> 20", "unit": "µM"},
      {"measurement": "IC50", "setting": "hEPHA4", "value": "> 20", "unit": "µM"},
      {"measurement": "IC50", "setting": "hEPHB6", "value": "> 20", "unit": "µM"},
      {"measurement": "IC50", "setting": "hFLT4", "value": "> 20", "unit": "µM"},
      {"measurement": "IC50", "setting": "hFRK", "value": "> 20", "unit": "µM"},
      {"measurement": "IC50", "setting": "hGRK7", "value": "> 20", "unit": "µM"},
      {"measurement": "IC50", "setting": "hHPK1", "value": "> 20", "unit": "µM"},
      {"measurement": "IC50", "setting": "hKIT-autoinhibited", "value": "> 20", "unit": "µM"},
      {"measurement": "IC50", "setting": "hLCK", "value": "> 20", "unit": "µM"},
      {"measurement": "IC50", "setting": "hMAP3K15", "value": "> 20", "unit": "µM"},
      {"measurement": "IC50", "setting": "hMARK2", "value": "> 20", "unit": "µM"},
      {"measurement": "IC50", "setting": "hRIOK1", "value": "> 20", "unit": "µM"},
      {"measurement": "IC50", "setting": "hROS1", "value": "> 20", "unit": "µM"},
      {"measurement": "IC50", "setting": "[1]", "value": "> 20", "unit": "µM"},
      {"measurement": "IC50", "setting": "hSRC", "value": "> 20", "unit": "µM"},
      {"measurement": "IC50", "setting": "hTNK2", "value": "> 20", "unit": "µM"},
      {"measurement": "inhibition at 10 µM", "setting": "hADRα2A", "value": -27.7, "unit": "%"},
      {"measurement": "% Effect, Potentiation", "setting": "hM2", "value": -32.2, "unit": "%"},
      {"measurement": "% Effect, Stimulation", "setting": "h5HT2B", "value": 3.4, "unit": "%"}
    ]}
  ]
}
